Experiment: mn = molality of the nth substance listed, in mol/kg
Conditions: Liquid, Capillary tube (Ostwald / Ubbelohde) method

O=S(=O)([O-])[O-].[Li+].[Li+] [lithium sulfate] + O
viscosity [mPa·s]
Conditions	100 kPa	10000 kPa	20000 kPa	30000 kPa
298.15 K, m1 = 0.1	0.939	–	–	–
298.15 K, m1 = 0.28	1.037	–	–	–
298.15 K, m1 = 0.56	1.195	1.195	1.195	1.195
298.15 K, m1 = 0.885	1.411	–	–	–
298.25 K, m1 = 0.28	–	1.035	1.035	1.036
298.35 K, m1 = 0.1	–	0.936	0.9361	0.9363
298.45 K, m1 = 0.885	–	1.404	1.404	1.404
303.15 K, m1 = 0.1	0.862	–	–	–
303.15 K, m1 = 0.28	0.951	–	–	–
303.15 K, m1 = 0.56	1.096	–	–	–
303.15 K, m1 = 0.885	1.294	–	–	–
306.19 K, m1 = 0.56	–	1.013	1.016	1.018
307.35 K, m1 = 0.885	–	1.17	1.173	1.176
307.93 K, m1 = 0.28	–	0.8517	0.8546	0.857
308.52 K, m1 = 0.1	–	0.7647	0.7659	0.7682
311.24 K, m1 = 0.56	–	0.9141	0.9168	0.9192
312.27 K, m1 = 0.28	–	0.778	0.7812	0.784
313.15 K, m1 = 0.1	0.707	–	–	–
313.15 K, m1 = 0.28	0.778	–	–	–
313.15 K, m1 = 0.56	0.891	–	–	–
313.15 K, m1 = 0.885	1.054	–	–	–
313.67 K, m1 = 0.1	–	0.6899	0.6927	0.6955
314.12 K, m1 = 0.885	–	1.016	1.019	1.023
321.55 K, m1 = 0.28	–	0.6508	0.6539	0.6569
322.35 K, m1 = 0.56	–	0.7352	0.7388	0.7422
322.55 K, m1 = 0.885	–	0.8649	0.8691	0.8731
323.15 K, m1 = 0.1	0.578	–	–	–
323.15 K, m1 = 0.28	0.63	–	–	–
323.15 K, m1 = 0.56	0.722	–	–	–
323.15 K, m1 = 0.885	0.853	–	–	–
324.55 K, m1 = 0.1	–	0.566	0.5689	0.5716
329.44 K, m1 = 0.28	–	0.567	0.57	0.5731
330.24 K, m1 = 0.885	–	0.7558	0.7598	0.7639
331.27 K, m1 = 0.56	–	0.6319	0.6354	0.6372
331.86 K, m1 = 0.1	–	0.5013	0.5035	0.5061
333.15 K, m1 = 0.1	0.49	–	–	–
333.15 K, m1 = 0.28	0.532	–	–	–
333.15 K, m1 = 0.56	0.61	–	–	–
333.15 K, m1 = 0.885	0.718	–	–	–
338.71 K, m1 = 0.28	–	0.4914	0.4942	0.4979
339.74 K, m1 = 0.1	–	0.4463	0.4491	0.452
340.72 K, m1 = 0.885	–	0.6414	0.6452	0.6494
340.73 K, m1 = 0.56	–	0.5456	0.5484	0.5514
343.15 K, m1 = 0.1	0.429	–	–	–
343.15 K, m1 = 0.28	0.462	–	–	–
343.15 K, m1 = 0.56	0.53	–	–	–
343.15 K, m1 = 0.885	0.624	–	–	–
343.35 K, m1 = 0.28	–	0.4594	0.4623	0.4653
347.05 K, m1 = 0.1	–	0.4034	0.4061	0.4088
348.15 K, m1 = 0.1	0.401	–	–	–
348.15 K, m1 = 0.28	0.433	–	–	–
348.15 K, m1 = 0.56	0.495	–	–	–
348.15 K, m1 = 0.885	0.582	–	–	–
348.95 K, m1 = 0.885	–	0.5714	0.5753	0.5792
349.55 K, m1 = 0.56	–	0.4831	0.4864	0.4897
351.04 K, m1 = 0.28	–	0.415	0.4183	0.4215
356.84 K, m1 = 0.1	–	0.3566	0.359	0.3621
358.15 K, m1 = 0.1	0.355	–	–	–
358.15 K, m1 = 0.28	0.381	–	–	–
358.15 K, m1 = 0.56	0.437	–	–	–
358.15 K, m1 = 0.885	0.511	–	–	–
359.14 K, m1 = 0.885	–	0.4999	0.5041	0.508
361.24 K, m1 = 0.56	–	0.4168	0.4191	0.4222
362.74 K, m1 = 0.28	–	0.3601	0.363	0.3662
365.04 K, m1 = 0.1	–	0.3241	0.3265	0.3291
369.72 K, m1 = 0.885	–	0.4415	0.4452	0.4495
372.13 K, m1 = 0.56	–	0.3691	0.3721	0.3752
375.75 K, m1 = 0.28	–	0.3127	0.3153	0.3181
378.85 K, m1 = 0.1	–	0.2812	0.2836	0.2862
379.05 K, m1 = 0.885	–	0.3993	0.4028	0.4065
383.06 K, m1 = 0.28	–	0.2916	0.2942	0.2974
384.05 K, m1 = 0.56	–	0.3274	0.3304	0.3335
384.27 K, m1 = 0.885	–	0.3782	0.382	0.3861
389.16 K, m1 = 0.1	–	0.2554	0.2577	0.2599
390.35 K, m1 = 0.56	–	0.3089	0.3124	0.3154
390.42 K, m1 = 0.28	–	0.2721	0.275	0.2784
390.72 K, m1 = 0.885	–	0.355	0.3591	0.3633
397.35 K, m1 = 0.885	–	0.3337	0.3371	0.3406
399.95 K, m1 = 0.28	–	0.2502	0.2528	0.2555
400.84 K, m1 = 0.1	–	0.2306	0.2331	0.236
401.73 K, m1 = 0.56	–	0.2797	0.2827	0.2855
405.24 K, m1 = 0.885	–	0.3115	0.3152	0.3194
409.36 K, m1 = 0.28	–	0.2314	0.234	0.2369
410.95 K, m1 = 0.1	–	0.2126	0.215	0.2192
411.05 K, m1 = 0.56	–	0.2584	0.2613	0.2644
415.13 K, m1 = 0.56	–	0.2502	0.2531	0.2564
415.76 K, m1 = 0.885	–	0.286	0.2901	–

From the NIST ThermoML archive (doi:10.1021/je030177j)
